Experimental data taken from US20100234231A1, “YIELD ENHANCING AGENT FOR HARVESTING PART OF CROP” (priority 2009, published 2010).

How the values were obtained:
Type in all cases: in vivo
[1] = system: rice (variety: Koshihikari); assay: Effect of enhancing yield of rice (pot test, treatment after ear emergence); conditions: for Number of ears per stock / Number of rice grains per ear / Weight of thousand grains / Ripening rate: ALA hydrochloride 0.1 g/10 a foliage x3, prohexadione calcium salt 0.4 g/10 a, 3 days after ear emergence; for Ripening rate: number of rice grains having specific gravity of 1.06 or more/number of total rice grains x100, in %; for Yield of rice per stock: product of ears per stock, grains per ear, ripening rate and thousand-grain weight, ALA hydrochloride 0.1 g/10 a, prohexadione calcium salt 0.4 g/10 a
Description: Seeds of rice (variety: Koshihikari) were sterilized with 70% ethanol, and rice seeds heavier than a specific gravity of 1.13 were screened by brine washing. Water absorption for one night at 30° C. and germination for one night were carried out, and then the seeds were sowed in a seedling box (4/11). A certain amount of kuroboku soil was placed in a 15-L Polybucket (1/17500×10 a), a synthetic fertilizer was mixed therein as a basal fertilizer such that N-P-K=5-5-5 kg/10 a, and water was drawn in to a water depth of 3 cm. Grown seedlings were planted at 3 stocks per bucket (5/15). […] Furthermore, 5-aminolevulic acid (ALA) hydrochloride was used for a foliage treatment for three times (8/14, 8/30, 9/10) at 0.1 […]). Four buckets were used for one test zone, and the buckets were placed randomly so as not to be affected by the place.

barley = assay: Effect of enhancing yield of barley grains (pot test, treatment around ear emergence)
Description: A certain amount of kuroboku soil was placed in a 15-L Polybucket (1/17500×10 a), a liquid fertilizer Hyponica was applied as a basal fertilizer such that N-P-K=5.0-2.8-8.5 kg/10 a, and barley was sowed (11/3). Five stocks of seedlings were planted per bucket, and in the middle of growth, thinning was performed to make the test zone uniform so that there would be 3 stocks per bucket. Five days before ear emergence (4/15), prohexadione calcium salt was used as an gibberellin biosynthesis inhibitor to treat at 7.0, 3.5 […]) (4/10). Furthermore, a treatment with 5-aminolevulic acid hydrochloride was performed at 0.15 […]) under the conditions of performing a foliage treatment each time at the respective times of before (4/3), simultaneously with (4/10) and after (5/8) the treatment with prohexadione calcium salt. […] Four buckets were used per test zone.

[2] = system: radish (variety: Red Chime); assay: Effect of enhancing yield of radish hypocotyl (pot test); conditions: ALA hydrochloride 0.1 g/10a foliage 6 days after prohexadione; prohexadione calcium salt 15 g/10a, 10 days after initiation of hypocotyl enlargement
Description: A certain amount of kuroboku soil was placed in a No. 6 pot (1/75000×10 a), and radish (variety: Red Chime) was planted (5/4). A liquid fertilizer Hyponica was applied as a basal fertilizer such that N-P-K=5.0-2.8-8.5 kg/10 a (5/8). Five stocks were planted per pot, and in the middle of growth, thinning was performed to make the test zone uniform so that there would be 3 stocks per pot. Ten days after the initiation of hypocotyl enlargement, prohexadione calcium salt was used as an gibberellin biosynthesis inhibitor to treat at 15 […]) (5/27). Furthermore, a treatment with 5-aminolevulic acid hydrochloride was performed at 0.1 […]) under the conditions of performing a foliage treatment (6/2) six days after the treatment with prohexadione calcium salt. […] Seven pots were used per test zone.

[3] = system: sunflower (variety: Hybrid Sunflower); assay: Effect of enhancing yield of sunflower seeds (field test, treatment after flowering); conditions: ALA hydrochloride 0.2 g/10a foliage x2, uniconazole P 0.3 g/10a, 7 days after flowering; for Number of filled seeds / Weight of filled seeds: empty seeds excluded
Description: A test field (red soil) was divided into 0.7 m^2 per compartment, and sunflower (variety: Hybrid Sunflower) was planted (6/9). A synthetic fertilizer was applied as a basal fertilizer such that N-P-K=5.0-5.0-5.0 kg/10 a (6/9). Four stocks were planted per test zone, and in the middle of growth, thinning was performed to make the test zone uniform so that there would be two stocks per test zone. Seven days after flowering, a Sumiseven P liquid preparation (containing 0.025% of uniconazole P) as an gibberellin biosynthesis inhibitor was used for treatment such that the amount of treatment of uniconazole P would be 0.3 […]) (8/20). Furthermore, a foliage treatment with 5-aminolevulic acid hydrochloride was performed at 0.2 […]), two times in total at the date of uniconazole P treatment (8/20) and 2 weeks after the uniconazole P treatment (9/3). As additional fertilization, a synthetic fertilizer was applied such that N-P-K=3.0-3.0-3.0 kg/10 a (7/8). After harvesting (9/16), the number and weight of seeds of each plant body were measured. This time, empty seeds without kernels were excluded. The test zone was provided as 6 test zones under each condition.

Turnip (variety: Honami) = assay: Comparative Example: combined treatment during seedling growth, turnip yield (field test); conditions: ALA hydrochloride 0.2 g/10a; prohexadione calcium salt 20 g/10a; 7 days before initiation of enlargement (seedling growth)
Description: Turnip (variety: […] At this time, a synthetic fertilizer was applied as a basal fertilizer such that N-P-K=5-5-5 kg/10 a. Four stocks were planted per test zone, and 4 test zones were set up randomly for one condition so as not to be affected by the place. […] After harvesting (11/12), the weights of the aerial part and the terrestrial part of the plant body were measured.

Row | SMILES | Number of ears per stock [1] | Number of rice grains per ear [1] | Weight of thousand grains [1] [g] | Ripening rate [1] | Yield of rice per stock [1] [g] | Weight of grains per stock (barley; ALA hydrochloride 0.15 g.a.i/10 a at the time 7 days before prohexadione calcium salt treatment (4/3), prohexadione calcium salt none) [g] | Weight of grains per stock (barley; ALA hydrochloride 0.15 g.a.i/10 a at the time 28 days after prohexadione calcium salt treatment (5/8), prohexadione calcium salt none) [g] | Weight of grains per stock (barley; ALA hydrochloride 0.15 g.a.i/10 a at the time simultaneous with prohexadione calcium salt treatment (4/10), prohexadione calcium salt none) [g] | Fresh weight of hypocotyl [2] [g] | Live weight of plant body [3] [kg/stock] | Number of filled seeds [3] [seeds/stock] | Weight of filled seeds [3] [g/stock] | Weight of aerial part (Turnip (variety: Honami)) [kg/stock] | Weight of terrestrial part (Turnip (variety: Honami)) [kg/stock] | Weight of grains per stock (barley; ALA hydrochloride none, prohexadione calcium salt 3.5 g.a.i/10 a, 5 days before ear emergence) [g] | Weight of grains per stock (barley; ALA hydrochloride none, prohexadione calcium salt 7 g.a.i/10 a, 5 days before ear emergence) [g]
1 | Cl.NCC(=O)CCC(=O)O [ALA hydrochloride, 5-aminolevulic acid hydrochloride] | 20.2 | 80.12 | 21.9 | 88.71 | 31.4 | 6.59 | 6.45 | 6.83 | 12.2 | 1.68 | 1348 | 120.5 | 0.368 | 0.725 | – | –
2 | CCC(=O)C1=C([O-])CC(C(=O)[O-])CC1=O.[Ca+2] (stereo not drawn) [Prohexadione calcium salt, calcium 3-oxido-5-oxo-4-propionyl-3-cyclohexene carboxylate] | 20.2 | 80.35 | 22.22 | 86.09 | 31.0 | – | – | – | 10.3 | – | – | – | 0.349 | 0.641 | 6.23 | 6.60
3 | CC(C)(C)[C@H](O)/C(=C\c1ccc(Cl)cc1)n1cncn1 [Uniconazole P, (E)-(S)-1-(4-chlorophenyl)-4,4-dimethyl-2-(1H-1,2,4-triazol-1-yl)pent-1-en-3-ol] | – | – | – | – | – | – | – | – | – | 1.96 | 1377 | 126.3 | – | – | – | –
